Laboratory results: patent publication US8455662B2, “Formulations for benzimidazolyl pyridyl ethers” (Novartis AG, priority 2006, dated 2013)

Assay: Aqueous solubility of API at various pHs
Type: physicochemical

Row | Compound | solubility (aqueous medium, pH 7, aqueous buffer) [µg/mL] | Solubility in water (water)
1 | Cn1c(Nc2ccc(C(F)(F)F)cc2)nc2cc(Oc3ccnc(-c4ncc(C(F)(F)F)[nH]4)c3)ccc21 [API, {1-methyl-5-[2-(5-trifluoromethyl-1H-imidazol-2-yl)-pyridin-4-yloxy]-1H-benzoimidazol-2-yl}-(4-trifluoromethyl-phenyl)amine] | < 1 | 
2 | Cn1c(Nc2ccc(C(F)(F)F)cc2)nc2cc(Oc3ccnc(-c4ncc(C(F)(F)F)[nH]4)c3)ccc21 [{1-Methyl-5-[2-(5-trifluoromethyl-1H-imidazol-2-yl)-pyridin-4-yloxy]-1H-benzoimidazol-2-yl}-(4-trifluoromethyl-phenyl)amine] |  | practically insoluble
